The results in this text go back to patent publication US11931343B2 (ARCUS BIOSCIENCES, INC., priority 2018, dated 2024).

This test has as its target T1, human CD73 (Homo sapiens, UniProt P21589).
T1 sequence (P21589 27-549): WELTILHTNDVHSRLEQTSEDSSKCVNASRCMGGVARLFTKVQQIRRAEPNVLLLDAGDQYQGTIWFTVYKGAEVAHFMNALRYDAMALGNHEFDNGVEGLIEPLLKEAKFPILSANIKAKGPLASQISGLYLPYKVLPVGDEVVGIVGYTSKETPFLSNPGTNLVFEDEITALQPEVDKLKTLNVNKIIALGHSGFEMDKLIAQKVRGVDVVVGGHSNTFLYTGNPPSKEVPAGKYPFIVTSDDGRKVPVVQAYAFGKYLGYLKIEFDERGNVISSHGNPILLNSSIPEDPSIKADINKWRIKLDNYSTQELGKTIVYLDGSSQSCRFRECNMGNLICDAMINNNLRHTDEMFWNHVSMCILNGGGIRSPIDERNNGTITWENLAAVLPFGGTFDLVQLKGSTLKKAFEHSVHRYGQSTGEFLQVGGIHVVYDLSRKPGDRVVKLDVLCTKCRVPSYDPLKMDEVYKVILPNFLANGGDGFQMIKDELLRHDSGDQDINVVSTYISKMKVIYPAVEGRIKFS
As to the kind of experiment: Inhibition of Ecto-5′-nucleotidase (CD73) activity in CHO-CD73 cells, phosphate release from AMP. It counts as cell-based. Conditions: CHO-K1 cells stably transfected with human CD73; 25 μM AMP; 50 minutes, 37° C.; read-out: Potency: CD73 IC50.

pIC50: −log10 of the molar value.

As a reminder, the pIC50 is −log10 of the IC50, conventionally taken in molar units. Turning to `Cc1cc(-n2nccc2-c2cc(Cl)c3nnn(-c4ccc5[nH]c(=O)[nH]c5c4)c3c2)ccc1Cl` [Example 263], the pIC50 is less than 6.00.

With `N#Cc1ccc(Cn2nccc2-c2cnc3c(N)nn(-c4ccc5cn[nH]c5c4)c3c2)cc1` [Example 218], the negative logarithm of the IC50 (pIC50) is 6.00 to 7.00.

Take `Fc1cc(-c2ccnn2Cc2ccc(-c3ncco3)cc2)cc2c1nnn2-c1ccc2cn[nH]c2c1` [Example 177]: the negative logarithm of the IC50 (pIC50) was less than 6.00.

Take `Clc1cccc(-n2nccc2-c2cc3c(cc2Cl)nnn3-c2ccc3cn[nH]c3c2)c1` [Example 404]: the pIC50 was 6.00 to 7.00.

As to `N#Cc1ccc(Cn2nccc2-c2cc3c(nnn3-c3ccc4cn[nH]c4c3)[nH]c2=O)cc1` [Example 372], the pIC50 was 6.00 to 7.00.

Turning to `Cc1nn(-c2ccc3cn[nH]c3c2)c2cc(-c3ccnn3Cc3ccc(C#N)cc3)cnc12` [Example 317], the pIC50 is 6.00 to 7.00.

For `Cc1cnc(-c2cc(C#N)ccc2Cn2nccc2-c2cc(F)c3nnn(-c4ccc5[nH]c(=O)[nH]c5c4)c3c2)o1` [Example 321], the negative logarithm of the IC50 (pIC50) is 6.00 to 7.00.

Regarding `N#Cc1ccc(Cn2nccc2-c2cc(C(F)(F)F)c3nnn(-c4ccc5cn[nH]c5c4)c3c2)nc1` [Example 125], the pIC50 is 6.00 to 7.00.

Regarding `CS(=O)(=O)c1cccc(-n2nccc2-c2cc(Cl)c3nnn(-c4ccc5[nH]c(=O)[nH]c5c4)c3c2)c1` [Example 301], the pIC50 is 6.00 to 7.00.

For the compound `O=c1[nH]c2ccc(-n3nnc4c(Cl)cc(-c5ccnn5Cc5ccc(Cl)c[n+]5[O-])cc43)cc2[nH]1` [Example 369], the pIC50 is 6.00 to 7.00.

Regarding `N#Cc1ccc(Cn2nccc2-c2cc(F)c3nnn(-c4ccc5[nH]c(=O)[nH]c5c4)c3c2)c(CNCC2CCCC2)c1` [Example 296], the pIC50 is 6.00 to 7.00.

In the case of `Nc1cccc(Cn2nccc2-c2cc(Cl)c3nnn(-c4ccc5[nH]c(=O)[nH]c5c4)c3c2)n1` [Example 287], the negative logarithm of the IC50 (pIC50) was less than 6.00.

Regarding `N#Cc1ccc(Cn2nccc2-c2cc(Cl)c3nnn(-c4ccc5[nH]c(=O)[nH]c5c4)c3c2)c(N2CCOCC2)c1` [Example 288], the pIC50 was less than 6.00.

As to `CCNc1nn(-c2ccc3cn[nH]c3c2)c2cc(-c3ccnn3Cc3ccc(C#N)cc3)cnc12` [Example 425], the negative-log IC50 (pIC50) is less than 6.00.

As for `CC(c1ccccc1)n1nccc1-c1cc(Cl)c2nnn(-c3ccc4cn[nH]c4c3)c2c1` (centres unmarked) [Example 70], the negative logarithm of the IC50 (pIC50) is 6.00 to 7.00.

In the case of `N#Cc1ccc(Cn2nccc2-c2cc3c(cnn3-c3ccc4cn[nH]c4c3)c(=O)[nH]2)c(F)c1` [Example 338], the pIC50 is 6.00 to 7.00.

For the compound `N#Cc1cccc(-n2nccc2-c2cc3c(cc2Cl)nnn3-c2ccc3cn[nH]c3c2)c1` [Example 403], the pIC50 was less than 6.00.

On to `Cc1nn(-c2ccc3cn[nH]c3c2)c2cc(-c3ccnn3Cc3ccc(C#N)cc3)c[n+]([O-])c12` [Example 360], for which the negative logarithm of the IC50 (pIC50) is 6.00 to 7.00.

For the compound `Brc1ccc(Cn2nccc2-c2ccc3nnn(-c4ccc5cn[nH]c5c4)c3c2)cc1` [Example 90], the negative logarithm of the IC50 (pIC50) is 6.00 to 7.00.

Take `Cc1nn(-c2ccc3cn[nH]c3c2)c2cc(-c3ccnn3Cc3ccc(Cl)cc3)cnc12` [Example 386]: the pIC50 was 6.00 to 7.00.

In the case of `COC(=O)Cn1nc(-c2ccc3[nH]c(=O)[nH]c3c2)c2cc(-c3ccnn3Cc3ccc(C#N)cc3)cnc21` [Example 325], the negative logarithm of the IC50 (pIC50) is less than 6.00.

With `Cn1nc(-c2ccc3[nH]c(=O)[nH]c3c2)c2cc(-c3ccnn3Cc3ccc(C#N)cc3)ncc21` [Example 327], the pIC50 was 6.00 to 7.00.

Regarding `N#Cc1ccc(Cn2nccc2-c2cc(F)c3nnn(-c4ccc5c(CO)n[nH]c5c4)c3c2)cc1` [Example 344], the pIC50 was 6.00 to 7.00.

Consider `N#Cc1ccc(Cn2nccc2-c2cc(F)c3nnn(-c4ccc5[nH][nH]c(=O)c5c4)c3c2)cc1` [Example 343], for which the pIC50 was 6.00 to 7.00.

Regarding `Fc1cc(-c2ccnn2Cc2ccccn2)cc2c1nnn2-c1ccc2cn[nH]c2c1` [Example 85], the negative logarithm of the IC50 (pIC50) is 6.00 to 7.00.

Consider `CC(C)(O)c1cc(C#N)ccc1Cn1nccc1-c1cc(F)c2nnn(-c3ccc4[nH]c(=O)[nH]c4c3)c2c1` [Example 312], for which the pIC50 was less than 6.00.
